SMILES: CCOc1ccc2ccccc2c1C(=O)N[C@@H]1C(=O)N2[C@@H]1SC(C)(C)[C@@H]2C(=O)[O-].[Na+]
- solubility (mole fraction) (in acetone, 278.15 K): 4.88e-05
- solubility (mole fraction) (in acetone, 283.15 K): 7.1e-05
- solubility (mole fraction) (in acetone, 288.15 K): 0.000106
- solubility (mole fraction) (in acetone, 293.15 K): 0.000158
- solubility (mole fraction) (in acetone, 298.15 K): 0.000202
- solubility (mole fraction) (in acetone, 303.15 K): 0.000255
- solubility (mole fraction) (in acetone, 308.15 K): 0.000309
- solubility (mole fraction) (in acetone, 313.15 K): 0.000353
- solubility (mole fraction) (in acetone, 318.15 K): 0.000401
- solubility (mole fraction) (in acetonitrile, 278.15 K): 2.25e-05
- solubility (mole fraction) (in acetonitrile, 283.15 K): 2.97e-05
- solubility (mole fraction) (in acetonitrile, 288.15 K): 4.09e-05
- solubility (mole fraction) (in acetonitrile, 293.15 K): 6.27e-05
- solubility (mole fraction) (in acetonitrile, 298.15 K): 7.46e-05
- solubility (mole fraction) (in acetonitrile, 303.15 K): 9.3e-05
- solubility (mole fraction) (in acetonitrile, 308.15 K): 0.000111
- solubility (mole fraction) (in acetonitrile, 313.15 K): 0.000128
- solubility (mole fraction) (in acetonitrile, 318.15 K): 0.000144
- solubility (mole fraction) (in ethanol, 278.15 K): 0.000161
- solubility (mole fraction) (in ethanol, 283.15 K): 0.000201
- solubility (mole fraction) (in ethanol, 288.15 K): 0.000246
- solubility (mole fraction) (in ethanol, 293.15 K): 0.00032
- solubility (mole fraction) (in ethanol, 298.15 K): 0.000372
- solubility (mole fraction) (in ethanol, 303.15 K): 0.000442
- solubility (mole fraction) (in ethanol, 308.15 K): 0.000509
- solubility (mole fraction) (in ethanol, 313.15 K): 0.000562
- solubility (mole fraction) (in ethanol, 318.15 K): 0.000615
- solubility (mole fraction) (in isopropanol, 278.15 K): 0.000155
- solubility (mole fraction) (in isopropanol, 283.15 K): 0.000177
- solubility (mole fraction) (in isopropanol, 288.15 K): 0.000201
- solubility (mole fraction) (in isopropanol, 293.15 K): 0.000229
- solubility (mole fraction) (in isopropanol, 298.15 K): 0.000261
- solubility (mole fraction) (in isopropanol, 303.15 K): 0.000297
- solubility (mole fraction) (in isopropanol, 308.15 K): 0.000337
- solubility (mole fraction) (in isopropanol, 313.15 K): 0.000367
- solubility (mole fraction) (in isopropanol, 318.15 K): 0.000395
- solubility (mole fraction) (in methanol, 278.15 K): 0.000605
- solubility (mole fraction) (in methanol, 283.15 K): 0.000803
- solubility (mole fraction) (in methanol, 288.15 K): 0.00101
- solubility (mole fraction) (in methanol, 293.15 K): 0.00121
- solubility (mole fraction) (in methanol, 298.15 K): 0.00149
- solubility (mole fraction) (in methanol, 303.15 K): 0.00173
- solubility (mole fraction) (in methanol, 308.15 K): 0.002
- solubility (mole fraction) (in methanol, 313.15 K): 0.00226
- solubility (mole fraction) (in methanol, 318.15 K): 0.00251
- solubility (mole fraction) (in n-butyl acetate, 278.15 K): 2.14e-05
- solubility (mole fraction) (in n-butyl acetate, 283.15 K): 3.21e-05
- solubility (mole fraction) (in n-butyl acetate, 288.15 K): 4.3e-05
- solubility (mole fraction) (in n-butyl acetate, 293.15 K): 5.85e-05
- solubility (mole fraction) (in n-butyl acetate, 298.15 K): 7.24e-05
- solubility (mole fraction) (in n-butyl acetate, 303.15 K): 8.6e-05
- solubility (mole fraction) (in n-butyl acetate, 308.15 K): 9.63e-05
- solubility (mole fraction) (in n-butyl acetate, 313.15 K): 0.000108
- solubility (mole fraction) (in n-butyl acetate, 318.15 K): 0.000117

Source: BigSolDB 2.1
